Experiment [1] concerns the target T1, rat mGluR5 receptor (Rattus norvegicus, UniProt P31424).
T1 construct: expressed in transfected cells; host or cells: HEK-293
Nature of the experiment: [3H]-MPEP binding HEK-293 cell membranes expressing a rat mGluR5 receptor. Conditions: displacement of 4 nM [3H]-MPEP, HEK-293 cell membranes expressing rat mGluR5, 60 minute at room temperature; read-out: mGluR5 Ligand Binding DR Ki. A digest of the protocol: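 Membranes from HEK-293 cells expressing rat mGluR5 incubated 60 min at room temperature in 50 mM Tris pH 7.5 with 4 nM [3H]-MPEP; 10 μM MPEP defines non-specific binding; filtration read-out. Single-point % inhibition at 10 μM, then Ki from IC50 via Cheng-Prusoff for actives.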

For experiment [2], the target named is T2, metabotropic glutamate receptor 5 (Rattus norvegicus, UniProt P31424).
T2 construct: expressed in transfected cells; host or cells: HEK-293
Nature of the experiment: FLIPR Calcium 3 fluorescence-based functional assay of intracellular calcium, mGluR5 antagonist activity. The class given is cell-based. The following applies: inhibition of glutamate (EC90, ~50 uM) stimulated calcium levels, mGluR5 HEK-293 cells; read-out: mGluR5 FLIPR MP Antagonist DR IC50. Summed up: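 mGluR5 HEK-293 cells (50,000/well, plated overnight) are loaded with FLIPR Calcium 3 dye for 1 h at 37 °C. Compound is added and fluorescence recorded on FLIPR. Inhibition of the glutamate-stimulated calcium signal is given as %, with IC50 from a 4-parameter logistic fit.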
(A change in cytosolic calcium serves as a functional read-out for many receptors and channels.)

A word on the Ki: it is the equilibrium dissociation constant of an inhibitor or competing ligand from its target. As a reminder, the IC50 is the midpoint of a concentration-inhibition curve.

T1 sequence (P31424 21-1203): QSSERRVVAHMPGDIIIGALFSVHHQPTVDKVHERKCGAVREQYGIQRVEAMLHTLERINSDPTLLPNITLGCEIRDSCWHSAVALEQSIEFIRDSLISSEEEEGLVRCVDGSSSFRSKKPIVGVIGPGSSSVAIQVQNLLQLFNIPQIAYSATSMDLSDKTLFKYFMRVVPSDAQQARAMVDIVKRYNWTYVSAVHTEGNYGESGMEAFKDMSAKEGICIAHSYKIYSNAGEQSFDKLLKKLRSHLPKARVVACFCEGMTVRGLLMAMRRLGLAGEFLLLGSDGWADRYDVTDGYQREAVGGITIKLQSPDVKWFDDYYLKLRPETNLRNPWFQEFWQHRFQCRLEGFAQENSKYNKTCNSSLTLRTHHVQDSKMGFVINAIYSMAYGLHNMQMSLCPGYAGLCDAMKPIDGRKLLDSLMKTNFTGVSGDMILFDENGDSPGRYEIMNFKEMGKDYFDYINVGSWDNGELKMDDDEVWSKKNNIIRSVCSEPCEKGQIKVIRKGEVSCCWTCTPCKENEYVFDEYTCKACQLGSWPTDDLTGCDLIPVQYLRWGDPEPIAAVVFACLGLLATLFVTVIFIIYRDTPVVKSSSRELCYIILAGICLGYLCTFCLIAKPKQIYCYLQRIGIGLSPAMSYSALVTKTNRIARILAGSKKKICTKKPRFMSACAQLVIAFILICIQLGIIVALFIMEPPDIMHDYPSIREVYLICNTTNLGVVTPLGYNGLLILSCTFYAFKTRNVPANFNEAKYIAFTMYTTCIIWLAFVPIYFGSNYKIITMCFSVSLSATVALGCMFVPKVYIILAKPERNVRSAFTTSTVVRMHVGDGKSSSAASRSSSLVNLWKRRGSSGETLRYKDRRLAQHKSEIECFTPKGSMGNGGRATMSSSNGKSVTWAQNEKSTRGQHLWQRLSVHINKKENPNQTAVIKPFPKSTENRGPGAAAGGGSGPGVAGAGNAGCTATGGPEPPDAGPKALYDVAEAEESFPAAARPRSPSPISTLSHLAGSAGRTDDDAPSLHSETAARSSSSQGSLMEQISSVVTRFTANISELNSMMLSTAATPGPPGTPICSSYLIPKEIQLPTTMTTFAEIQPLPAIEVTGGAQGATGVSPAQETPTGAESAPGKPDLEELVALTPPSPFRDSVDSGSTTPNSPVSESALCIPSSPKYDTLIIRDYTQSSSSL
T2 sequence (P31424 21-1203): as above

For `Cc1nc2c(o1)CCN(C(=O)c1ccc(C)c(C#Cc3ccccn3)c1)C2` [Example 90, 2-methyl-5-{[4-methyl-3-(pyridin-2-ylethynyl)phenyl]carbonyl}-4,5,6,7-tetrahydro[1,3]oxazolo[4,5-c]pyridine], in experiment [1], the Ki worked out at 16 nM. In addition, the IC50 in experiment [2] amounted to 9 nM.
Taken in the same sequence, the figures for `Cc1ccc(C(=O)N2Cc3cccnc3C2)cc1C#Cc1ccccn1` [Example 91, 6-{[4-methyl-3-(pyridin-2-ylethynyl)phenyl]carbonyl}-6,7-dihydro-5H-pyrrolo[3,4-b]pyridine] were 6 nM and 4 nM.
In the same order, the values of `O=C(c1ccc(C(F)(F)F)c(C#Cc2ccccn2)c1)N1Cc2cccnc2C1` [Example 92, 6-{[3-(Pyridin-2-ylethynyl)-4-(trifluoromethyl)phenyl]carbonyl}-6,7-dihydro-5H-pyrrolo[3,4-b]pyridine] are 3 nM and 7 nM.
With `O=C(c1ccc(C(F)(F)F)c(C#Cc2ccccn2)c1)N1CCc2ccccc2C1` [Example 93, 2-{[3-(Pyridin-2-ylethynyl)-4-(trifluoromethyl)phenyl]carbonyl}-1,2,3,4-tetrahydroisoquinoline], in experiment [1], the Ki was 2 nM. In addition, the half-maximal inhibitory concentration (IC50) in experiment [2] turned out to be 42 nM.
In the same order, the values of `O=C(c1ccc(C(F)(F)F)c(C#Cc2ccccn2)c1)N1CCc2ccc(Cl)cc2C1` [Example 94, 7-Chloro-2-{[3-(pyridin-2-ylethynyl)-4-(trifluoromethyl)phenyl]carbonyl}-1,2,3,4-tetrahydroisoquinoline] are 2 nM and 152 nM.
Taken in the same sequence, the figures for `O=C(c1ccc(C(F)(F)F)c(C#Cc2ccccn2)c1)N1CCc2c(Cl)cccc2C1` [Example 95, 5-Chloro-2-{[3-(pyridin-2-ylethynyl)-4-(trifluoromethyl)phenyl]carbonyl}-1,2,3,4-tetrahydroisoquinoline] were 4 nM and 163 nM.
Taken in the same sequence, the figures for `O=C(c1ccc(C(F)(F)F)c(C#Cc2ccccn2)c1)N1Cc2ccccc2C1` [Example 96, 2-{[3-(Pyridin-2-ylethynyl)-4-(trifluoromethyl)phenyl]carbonyl}-2,3-dihydro-1H-isoindole] were 5 nM and 69 nM.
For the molecule `O=C(c1ccc(C(F)(F)F)c(C#Cc2ccccn2)c1)N1CCc2ncc(Br)cc2C1` [Example 97, 3-Bromo-6-{[3-(pyridin-2-ylethynyl)-4-(trifluoromethyl)phenyl]carbonyl}-5,6,7,8-tetrahydro-1,6-naphthyridine], the Ki in experiment [1] was found to be 1 nM. Further, the IC50 in experiment [2] came out at 13 nM.
Taken in the same sequence, the figures for `O=C(c1ccc(C(F)(F)F)c(C#Cc2ccccn2)c1)N1CCc2ncccc2C1` [Example 98, 6-{[3-(Pyridin-2-ylethynyl)-4-(trifluoromethyl)phenyl]carbonyl}-5,6,7,8-tetrahydro-1,6-naphthyridine] were 4 nM and 7 nM.
Taken in the same sequence, the figures for `O=C(c1ccc(C(F)(F)F)c(C#Cc2ccccn2)c1)N1CCc2[nH]ncc2C1` [Example 100, 5-{[3-(Pyridin-2-ylethynyl)-4-(trifluoromethyl)phenyl]carbonyl}-4,5,6,7-tetrahydro-1H-pyrazolo[4,3-c]pyridine] were 4 nM and 5 nM.
In the same order, the values of `O=C(c1ccc(C(F)(F)F)c(C#Cc2ccccn2)c1)N1CCc2[nH]cnc2C1` [Example 101, 5-{[3-(Pyridin-2-ylethynyl)-4-(trifluoromethyl)phenyl]carbonyl}-4,5,6,7-tetrahydro-1H-imidazo[4,5-c]pyridine] are 36 nM and 18 nM.

Values taken from patent US20100273772A1, “Bisaryl Alkynylamides as Negative Allosteric Modulators of Metabotropic Glutamate Receptor 5 (MGLUR5)” (Wyeth LLC, priority 2009, published 2010).
